# Experimental data: patent publication US11752169B2, “Treatment of pain with polysulfated polysaccharides” (PARADIGM BIOPHARMACEUTICALS LTD., priority 2018, dated 2023)
# Assays:
# MMP13 mRNA = test: real-time RT-PCR for MMP13 mRNA in KOA osteocyte-like cultures; type: cell-based, human; details: KOA donor osteocyte-like cultures, PPS 1 μg/mL + rhTNFα 1 ng/mL (FIG. 20)
# Text: FIG. 20. The effect of PPS treatment on basal and TNFα-induced MMP13 expression in human KOA osteocyte-like cultures. Real-time RT-PCR analysis of MMP13 mRNA relative to the expression of 18S rRNA. Data are means+SD of triplicate real-time RT-PCR reactions. A) KOA1-MMP13:18S mRNA expression; and B) KOA2-MMP13:185 mRNA expression.
# Cryopreserved cells from each donor (all at passage 0 or 1) were thawed and cultured for 10d in T75 cm^2 tissue culture flasks. Once confluent, cells were removed by collagenase/dispase digestion, washed by centrifugation, counted and adjusted to 5×10^5 cells/mL. Cells were then seeded into either 12-well tissue culture trays or into 8-well chamber slides, at 1×10^5 and 2×10^4 cells/well, respectively. […]
# (§1) Following three days of pre-treatment of osteocyte-like cultures with PPS and a further 48 h treatment period, total RNA was isolated for the purposes of analysing gene expression using real-time RT-PCR. While the quality of the RNA isolated from all cultures appeared to be high, as adjudged by Nanodrop micro-spectrophotometry showing the ratio of absorbance at 260 nm/280 nm generally being between 1.9 and 2.0, there was a consistent inability to generate complementary DNA (cDNA) from any samples exposed to 5 or 50 μg/mL PPS, except in one or two samples. […]
# COX2 mRNA = test: real-time RT-PCR for COX2 mRNA in KOA osteocyte-like cultures; type: cell-based, human
# Protocol: Cryopreserved cells from each donor (all at passage 0 or 1) were thawed and cultured for 10d in T75 cm^2 tissue culture flasks. Once confluent, cells were removed by collagenase/dispase digestion, washed by centrifugation, counted and adjusted to 5×10^5 cells/mL. Cells were then seeded into either 12-well tissue culture trays or into 8-well chamber slides, at 1×10^5 and 2×10^4 cells/well, respectively. After 24 h, media were replaced with osteogenic differentiation medium, consisting of αMEM, 5% v/v foetal calf serum (FCS), 1.8 mM potassium dihydrogen phosphate (KH2PO4), 100 μM Ascorbate-2-phosphate (As2P), 10 mM HEPES, 10^−8 M Dexamethasone and 0.2 mM L-Glutamine. During the differentiation process, samples were collected at days 3, 14 and 28 in Trizol reagent for total RNA preparation and gene expression analysis (see below). […]
# as §1
substance,measurement,setting,value
Sodium Pentosan Polysulfate [PPS],rhTNFα-induced MMP13 mRNA expression,MMP13 mRNA,strongly inhibited
same,"COX2 mRNA expression, PPS alone",COX2 mRNA; PPS 1 μg/mL (FIG. 18),completely inhibited
same,"COX2 mRNA expression, PPS in combination with rhTNFα",COX2 mRNA; PPS 1 μg/mL + rhTNFα 1 ng/mL (FIG. 18),completely inhibited
